Measurements taken from patent US11098056B2, “UDP glycosyltransferase inhibitors and methods of use” (GENZYME CORPORATION, priority 2018, dated 2021).

Columns and labels:
[1] = molecular target: T1, UGT8 (Homo sapiens, UniProt Q16880); experiment: In vitro sulfatide (SFT) synthesis inhibition in OE19 cells, LC-MS/MS readout; format: cell-based; conditions: 72 hr, sulfatide by LC-MS/MS, read-out: Potency range (IC50, In-vitro SFT)
T1 construct: host or cells: OE19 cells
T1 sequence (Q16880 21-541): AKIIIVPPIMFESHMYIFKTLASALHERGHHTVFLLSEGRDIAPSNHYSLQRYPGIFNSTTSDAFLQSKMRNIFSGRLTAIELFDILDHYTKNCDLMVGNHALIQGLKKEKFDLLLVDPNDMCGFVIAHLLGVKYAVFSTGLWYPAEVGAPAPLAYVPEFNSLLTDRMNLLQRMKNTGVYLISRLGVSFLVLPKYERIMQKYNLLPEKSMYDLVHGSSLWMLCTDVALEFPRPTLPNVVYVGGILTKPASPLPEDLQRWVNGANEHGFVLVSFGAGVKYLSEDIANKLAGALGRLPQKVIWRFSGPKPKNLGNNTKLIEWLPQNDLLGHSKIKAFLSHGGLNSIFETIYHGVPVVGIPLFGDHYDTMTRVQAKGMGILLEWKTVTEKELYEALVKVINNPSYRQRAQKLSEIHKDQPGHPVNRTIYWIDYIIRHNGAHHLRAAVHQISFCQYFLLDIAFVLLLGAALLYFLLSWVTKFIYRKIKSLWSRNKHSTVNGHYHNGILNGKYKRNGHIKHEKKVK
Summary of the method: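 OE19 cells, 2,500/well, exposed to compound dose-downs in triplicate for 72 hr at 37° C (screening at 10 μM final). Sulfatide quantified by LC-MS/MS (C8 UPLC, isocratic, negative-ion MRM) with C17 SFT internal standard; IC50 from concentration-response curves.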

[2] = molecular target: T2, UGT8 (Mus musculus, UniProt Q64676); experiment: Acute in vivo target engagement in mouse kidney: inhibition of de novo GalCer and SFT synthesis (13C-Gal incorporation); conditions: 5 hr
T2 construct: Groups of 5 male C57Bl/6 mice, 6-9 wks of age (Charles River Laboratories); tissue Charles River Laboratories; host or cells: mouse kidney (adult C57Bl/6) and mid-/hind brain (neonatal P14-P21 mice)
T2 sequence (Q64676 21-541): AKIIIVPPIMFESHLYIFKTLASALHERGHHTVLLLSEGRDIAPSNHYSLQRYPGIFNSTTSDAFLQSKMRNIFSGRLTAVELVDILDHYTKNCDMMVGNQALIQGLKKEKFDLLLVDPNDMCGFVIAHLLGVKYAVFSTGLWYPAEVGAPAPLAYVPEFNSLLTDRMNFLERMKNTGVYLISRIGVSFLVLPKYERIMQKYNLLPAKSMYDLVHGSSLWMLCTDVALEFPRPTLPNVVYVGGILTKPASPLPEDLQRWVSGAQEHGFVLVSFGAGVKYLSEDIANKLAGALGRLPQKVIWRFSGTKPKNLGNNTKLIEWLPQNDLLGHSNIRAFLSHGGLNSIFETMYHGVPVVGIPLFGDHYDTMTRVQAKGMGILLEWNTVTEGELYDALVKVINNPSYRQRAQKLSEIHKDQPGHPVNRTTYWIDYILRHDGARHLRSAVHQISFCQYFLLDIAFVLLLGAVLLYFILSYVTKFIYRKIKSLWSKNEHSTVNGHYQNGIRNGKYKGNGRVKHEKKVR
Description: In vivo target engagement was initially assessed in an adult mouse kidney model assessing de novo synthesis inhibition. This model was selected because the high rate of GalCer and SFT synthesis and turnover in kidney facilitated development of an acute one-day model assessing the effect of a single administration of compound at different doses. Inhibition of de novo synthesis was determined by measuring the amount of 13C6 galactose (13C-Gal; CIL, cat #CLM-1570-pk) incorporated into GalCer and SFT.
Groups of 5 male C57Bl/6 mice, 6-9 wks of age (Charles River Laboratories) were maintained in an ALAAC-accredited vivarium with food and water ad libitum and were allowed to acclimate one week before initiating studies. Three to 5 dose groups received test article formulated in a clinically-acceptable formulation, administered by oral gavage; the control group received vehicle alone. One hr after administration of test article, animals received an intraperitoneal (i.p.) injection of 13C-Gal (3 g/kg); 5 hr after administration of test article, animals were euthanized and a kidney was removed and divided into two longitudinal samples that were snap-frozen and stored at −80° C. until processing for test article tissue exposure and lipid analysis (GalCer and SFT). Typically, brain and plasma samples were also collected for test article exposure.
(§1) Mass Spectrometer Analysis of SFT
(§2) Quantitative analysis of sphingolipids (SLs) was performed using liquid chromatography with tandem mass spectrometry analysis (LC-MS/MS). Briefly, to extract glucosylceramide (GlcCer), galactosylceramide (GalCer), and sulfatide (ST), an aliquot of 10 μL of mouse tissue homogenate (100 mg/ml in water) was mixed with 1 mL of extraction solution (0.2% Formic Acid; 5 mM Ammonium formate in (50:50) Methanol:Acetonitrile (v/v) with internal standards (IS)). C17-ST and D35 labeled C18-GalCer were used for IS. The mixtures were vortexed and centrifuged. The resulting supernatants were transferred to HPLC vials for LC-MS/MS analysis. GlcCer and GalCer were separated using a Waters Acquity UPLC and Atlantis HILIC Silica column (2.1 mm×150 mm, […], Waters Corp., Milford, Mass.) and analyzed by an API 5000 triple quadrupole mass spectrometer in MRM mode (Applied Biosystems, Foster City, Calif.). ST were analyzed using a Waters Acquity UPLC and BEH C18 column (2.1 mm×50 mm, […], Waters Corp., Milford, Mass.) and analyzed by an API 6500 triple quadrupole mass spectrometer in MRM mode (Applied Biosystems, Foster City, Calif.).

[3] = molecular target: T2, UGT8; experiment: Acute in vivo target engagement in neonatal mouse brain: inhibition of de novo GalCer and SFT synthesis (13C-Gal incorporation); conditions: neonatal mouse (P14-P21) brain, 5 hr
From the text: SFT biosynthesis and turnover in the myelin of adult mice is very low, necessitating development of a short-term acute model of de novo synthesis inhibition. To do this, we took advantage of the fact that unlike primates in which most developmental myelination occurs in utero, in rodents, peak myelination occurs between postnatal day 14 (P14) and P22.
Groups of 5 neonatal mice age-matched between P14 and P21 received test article formulated in a clinically-acceptable formulation, administered by oral gavage; the control group received vehicle alone. One hr after administration of test article, animals received an i.p. injection of 13C-Gal (3 g/kg); 5 hr after administration of test article, animals were euthanized, brains were removed and dissected for recovery of mid- and hind brain which was snap-frozen and stored at −80° C. until analysis. Plasma samples were also collected for test article exposure analysis.
as §1, §2

Compound	IC50 [1] [nM]	kidney GalCer % inh ([2]; single oral dose 1 mg/kg)	kidney Sulfatide % inh ([2]; single oral dose 1 mg/kg)	kidney GalCer % inh ([2]; single oral dose 3 mg/kg)	kidney Sulfatide % inh ([2]; single oral dose 3 mg/kg)	kidney GalCer % inh ([2]; single oral dose 10 mg/kg)	kidney Sulfatide % inh ([2]; single oral dose 10 mg/kg)	brain GalCer % inh ([3]; single oral dose 3 mg/kg)	brain Sulfatide % inh ([3]; single oral dose 3 mg/kg)	brain GalCer % inh ([3]; single oral dose 10 mg/kg)	brain Sulfatide % inh ([3]; single oral dose 10 mg/kg)	brain GalCer % inh ([3]; single oral dose 30 mg/kg)	brain Sulfatide % inh ([3]; single oral dose 30 mg/kg)	kidney GalCer % inh ([2]; single oral dose 30 mg/kg)	kidney Sulfatide % inh ([2]; single oral dose 30 mg/kg)	kidney GalCer % inh ([2]; single oral dose 50 mg/kg)	brain GalCer % inh ([3]; single oral dose 100 mg/kg)	brain Sulfatide % inh ([3]; single oral dose 100 mg/kg)	also measured
CNC(=O)c1csc2c(C(F)(F)F)cc(N3CCC(OC(=O)NC(C)C)CC3)nc12 [Example 76, 1-(3-(Methylcarbamoyl)-7-(trifluoromethyl)thieno[3,2-b]pyridin-5-yl)piperidin-4-yl isopropylcarbamate]	< 100	C (C < 40%)	C (C < 40%)	B (40% < B < 80%)	B (40% < B < 80%)	B (40% < B < 80%)	B (40% < B < 80%)	B (40% < B < 80%)	B (40% < B < 80%)	A (A > 80%)	A (A > 80%)	A (A > 80%)	A (A > 80%)						
CNC(=O)c1csc2c(C(F)(F)F)cc(N3CCC(OC(=O)N[C@@H](C)COC(F)(F)F)CC3)nc12 [Example 90, 1-(3-(Methylcarbamoyl)-7-(trifluoromethyl)thieno[3,2-b]pyridin-5-yl)piperidin-4-yl (S)-(1-(trifluoromethoxy)propan-2-yl)carbamate]	< 100	C (C < 40%)	B (40% < B < 80%)	A (A > 80%)	A (A > 80%)	A (A > 80%)	A (A > 80%)	A, A, A (A > 80%)	A, A, A (A > 80%)	A, A, A (A > 80%)	A, A, A (A > 80%)	A, A, A (A > 80%)	A, A, A (A > 80%)	A (A > 80%)	A (A > 80%)				kidney GalCer % inh ([2]; single oral dose 0.3 mg/kg): C (C < 40%); kidney Sulfatide % inh ([2]; single oral dose 0.3 mg/kg): C (C < 40%)
CNC(=O)c1csc2c(C(F)(F)F)cc(N3CCC(OC(=O)N[C@@H](C)C4CC4)CC3)nc12 [Example 109, 1-(3-(Methylcarbamoyl)-7-(trifluoromethyl)thieno[3,2-b]pyridin-5-yl)piperidin-4-yl (S)-(1-cyclopropylethyl)carbamate]	< 100					B (40% < B < 80%)				B, B, B (40% < B < 80%)	A, A, A (A > 80%)	B, B, B (40% < B < 80%)	A, A, A (A > 80%)			A (A > 80%)	B, B, B (40% < B < 80%)	A, A, A (A > 80%)	kidney GalCer % inh ([2]; single oral dose 5 mg/kg): C (C < 40%)
CNC(=O)c1csc2c(C(F)(F)F)cc(O[C@@H]3CCN(C(=O)OCCOC(F)(F)F)[C@H](C)C3)nc12 [Example 375, 2-(Trifluoromethoxy)ethyl (2R,4R)-2-methyl-4-((3-(methylcarbamoyl)-7-(trifluoromethyl)thieno[3,2-b]pyridin-5-yl)oxy)piperidine-1-carboxylate]	< 100	C (C < 40%)	C (C < 40%)	C (C < 40%)	C (C < 40%)	B (40% < B < 80%)	B (40% < B < 80%)	B (40% < B < 80%)	B (40% < B < 80%)	A (A > 80%)	A (A > 80%)			A (A > 80%)	A (A > 80%)				kidney GalCer % inh ([2]; single oral dose 100 mg/kg): A (A > 80%); kidney Sulfatide % inh ([2]; single oral dose 100 mg/kg): A (A > 80%); brain GalCer % inh ([3]; single oral dose 1 mg/kg): B (40% < B < 80%); brain Sulfatide % inh ([3]; single oral dose 1 mg/kg): B (40% < B < 80%)
CNC(=O)c1csc2c(C(F)(F)F)cc(N3CCC(OC(=O)NC4CC4)CC3)nc12 [Example 473, 1-(3-(Methylcarbamoyl)-7-(trifluoromethyl)thieno[3,2-b]pyridin-5-yl)piperidin-4-yl cyclopropylcarbamate]	< 100			C (C < 40%)	C (C < 40%)	C (C < 40%)	B (40% < B < 80%)			A, A, A (A > 80%)	A, A, A (A > 80%)	A, A, A (A > 80%)	A, A, A (A > 80%)			B (40% < B < 80%)	A, A, A (A > 80%)	A, A, A (A > 80%)	kidney Sulfatide % inh ([2]; single oral dose 50 mg/kg): A (A > 80%)
